Assay results as given in PubChem BioAssay (NCI).
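Cultured in 96-well plates, cells were exposed to test compound for 48 hours across five concentrations. GI50 marks 50% less growth. The concentration for full growth arrest is given as TGI.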

Assays:
Test in all cases: DTP human tumour cell line panel, 48 h
[1] = test system: MCF7 breast
[2] = test system: COLO 205 colon
[3] = test system: SK-OV-3 ovarian
[4] = test system: HCT-116 colon
[5] = test system: HOP-62 NSCLC
[6] = test system: DU-145 prostate
[7] = test system: OVCAR-5 ovarian
[8] = test system: HL-60(TB) leukemia
[9] = test system: SK-MEL-5 melanoma
[10] = test system: A549 NSCLC

| SMILES | TGI [1] | TGI [2] | TGI [3] | TGI [4] | TGI [5] | TGI [6] | TGI [7] | TGI [8] | TGI [9] | TGI [10] | GI50 [1] | GI50 [2] | GI50 [3] | GI50 [4] | GI50 [5] | GI50 [6] | GI50 [7] | GI50 [8] | GI50 [9] | GI50 [10] |
| --- | --- | --- | --- | --- | --- | --- | --- | --- | --- | --- | --- | --- | --- | --- | --- | --- | --- | --- | --- | --- |
| CN(N=O)c1ccc(/C=C/c2ccnc3ccccc23)cc1 | > 100 µM | > 100 µM | > 100 µM | > 100 µM | > 100 µM | > 100 µM | > 100 µM | > 100 µM | > 100 µM | > 100 µM |  |  |  |  |  |  |  |  |  |  |
| O=C1c2ccccc2-c2cn(Cc3ccccc3)c3cccc(c23)C1c1cccnc1 (centres undefined) | > 50 µM | 9.44 µM | > 50 µM | > 50 µM | > 50 µM | 40.5 µM | > 50 µM | 19.5 µM | 17.9 µM | > 50 µM | 1.64 µM | 2.26 µM | 5.38 µM | 1.99 µM | 3.44 µM | 4.27 µM | > 50 µM | 2.4 µM | 2.42 µM | 3.2 µM |
| CO[C@H]1C[C@H](O[C@H]2CC[C@@]3(C)[C@H](CC[C@@H]4[C@@H]3CC[C@]3(C)[C@@H](C5=CC(=O)OC5)CC[C@]43O)C2)O[C@H](C)[C@H]1O | 0.134 µM | 0.235 µM | 0.0291 µM | 0.0161 µM | 0.0202 µM |  | 0.0896 µM |  | 0.0469 µM | < 0.0118 µM |  |  |  |  |  |  |  |  |  |  |
| COc1ccc([C@@H]2[C@@H](Cl)C(=O)N2c2cc(OC)c(OC)c(OC)c2)cc1C | > 100 µM | 0.159 µM | > 100 µM | 11.4 µM | > 100 µM | 0.236 µM | > 100 µM | 0.0767 µM | 1.34 µM | > 100 µM | 0.0435 µM | 0.0386 µM | 0.0841 µM | 0.0401 µM | 0.0535 µM | 0.0405 µM | 0.305 µM | 0.0272 µM | 0.0553 µM | 0.273 µM |
| ClC/C=C/CSc1ncnc2nc[nH]c12 | > 100 µM | > 100 µM | > 100 µM | > 100 µM | > 100 µM | > 100 µM | > 100 µM |  | > 100 µM |  | > 100 µM | > 100 µM | > 100 µM | > 100 µM | > 100 µM | > 100 µM | > 100 µM |  | > 100 µM |  |
| COc1ccc(/C=C\c2cc(OC)c(OC)c(OC)c2)cc1NC(=O)/C=C/c1cc(OC)c(OC)c(OC)c1 | > 100 µM | 18.5 µM |  | > 100 µM | > 100 µM | > 100 µM | > 100 µM | 8.03 µM | 6.73 µM | > 100 µM | 2.92 µM | 4.41 µM |  | 3.83 µM | 4.62 µM | 5.01 µM | 5.74 µM | 1.95 µM | 2.21 µM | 3.82 µM |
| COC(=O)C(=O)C(C(=O)C(=O)Nc1cc(C)ccc1C)c1nc2ccccc2[nH]c1=O (centres undefined) | > 100 µM | > 100 µM | > 100 µM | > 100 µM | > 100 µM | > 100 µM | > 100 µM |  | > 100 µM | > 100 µM |  |  |  |  |  |  |  |  |  |  |
| COc1cc2c(c3oc4c(O)cccc4c(=O)c13)CC(C(C)(O)CCl)O2 (centres undefined) | 12.9 µM | 1.85 µM | 17.9 µM | 2.53 µM | 5.85 µM | 10.3 µM | 34 µM |  | 1.5 µM | 13.6 µM |  |  |  |  |  |  |  |  |  |  |
| CC/C(=C/c1ccc(OC)cc1)[N+](=O)[O-] |  | 3.75 µM | 27.5 µM | 3.1 µM | 5.89 µM | 5.07 µM | 6.08 µM | 5.47 µM | 3.56 µM | 19.6 µM |  | 1.89 µM | 14.4 µM | 1.61 µM | 2.23 µM | 2.17 µM | 2.34 µM | 1.89 µM | 1.87 µM | 6.07 µM |
| O=C(CC1(O)C(=O)Nc2ccc(Cl)cc21)c1ccc(C(=O)NCC2CCC3(CC2)OOC2(CCCCC2)OO3)cc1 (centres undefined) | 9.88 µM | 12.3 µM | 8.01 µM | 12.3 µM | 2 µM | 6.49 µM | 30.9 µM |  | 3.4 µM |  | 2.37 µM | 3.09 µM | 2.6 µM | 2.71 µM | 0.445 µM | 2 µM | 4.21 µM |  | 1.75 µM |  |
